US20230079107A1, “COMPOSITIONS AND METHODS FOR THE TREATMENT OF HUMAN IMMUNODEFICIENCY VIRUS” (Cidara Therapeutics, Inc., priority 2019, published 2023)
Where two headings read alike, the source gives them in different places.

What was measured:
Type in all cases: cell-based
in vitro = test: in vitro; design: TC50: unit not given beside the values; conditions: human
Description: (§1) In these studies, cytotoxicity was also evaluated (TC50). Test materials were derived by measuring the reduction of the tetrazolium dye XTT (2,3-bis(2-methoxy-4-nitro-5-sulfophenyl)-5-[(phenylamino)carbonyl]-2H-tetrazolium hydroxide). XTT in metabolically active cells is metabolized by the mitochondrial enzyme NADPH oxidase to a soluble formazan product. XTT solution was prepared daily as a stock of 1 mg/mL in RPMI-1640 without additives. Phenazine methosulfate (PMS) solution was prepared at 0.15 mg/mL in DPBS and stored in the dark at −20° C. XTT/PMS stock was prepared immediately before use by adding 40 μL of PMS per mL of XTT solution. 50 μL of XTT/PMS was added to each well of the plate and the plate incubated for 4 hours at 37° C. The 4 hour incubation has been empirically determined to be within the linear response range for XTT dye reduction with the indicated numbers of cells for each assay. The plates were sealed and inverted several times to mix the soluble formazan product and the plate was read at 450 nm (650 nm reference wavelength) with a Molecular Devices SpectraMax Plus 384 96 well plate format spectrophotometer.
as §1, with “Fifty L (50 μL)” for “50 μL”
as §1, with “studies” for “studies,”, “Fifty L (50 μL)” for “50 μL”
(§2) In these studies, cytotoxicity was also evaluated (TC50). Test materials were derived by measuring the reduction of the tetrazolium dye XTT (2,3-bis(2-methoxy-4-nitro-5-sulfophenyl)-5-[(phenylamino)carbonyl]-2H-tetrazolium hydroxide). XTT in metabolically active cells is metabolized by the mitochondrial enzyme NADPH oxidase to a soluble formazan product. XTT solution was prepared daily as a stock of 1 mg/mL in RPMI-1640 without additives.

[1] = molecular target: cell-cell fusion of HeLa-CD4-LTR-β-Gal and HL2/3 cells mediated by gp120 and CD4 interaction (UniProt P04578)
[2] = tested on: HeLa-CD4-LTR-β-Gal and HL2/3 cells (cell viability); test: in vitro; design: TC50: unit not given beside the values; conditions: Example 36, Table 9, XTT
Description: as §1
as §1, with “Fifty L (50 μL)” for “50 μL”
as §1, with “studies” for “studies,”, “Fifty L (50 μL)” for “50 μL”
as §2

[3] = Example 19, Table 6, Run 2, XTT, read-out: TC50 [μM] Run 2
[4] = Example 19, Table 6, Run 3, XTT, read-out: TC50 [μM] Run 3
[5] = Example 19, Table 6, Run 1, XTT, read-out: TC50 [μM] Run 1
[6] = Example 11, Table 5, XTT, read-out: TC50 (the source's name)
[7] = Example 33, Table 7, XTT, read-out: TC50 (nM) (Tox)

Compound | CC50 (in vitro; [4]) [µM] | CC50 (in vitro; [5]) [µM] | CC50 (in vitro; [6]) [µM] | CC50 (in vitro; [7]) [µM] | further results
C#CCOCCOCCOCCOCC(O)CNC(=O)c1nc(-c2ncc(OC)c3c(C(=O)C(=O)N4CCC(=C(C#N)c5ccccc5)CC4)c[nH]c23)cs1 (stereo not shown) [Int-4] | – | – | – | – | CC50 (in vitro; [3]): > 10 µM; fusion inhibition activity, in words [1]: highly active
C#CCOCCOCCOCCOCCNC(=O)c1ncn(-c2ncc(OC)c3c(C(=O)C(=O)N4CCC(=C(C#N)c5ccccc5)CC4)c[nH]c23)n1 [Int-2] | > 10 | – | – | – | CC50 (in vitro; [3]): > 10 µM; fusion inhibition activity, in words [1]: highly active
C#CCOCCOCCOCCC1CCN(CCNC(=O)c2ncn(-c3ncc(OC)c4c(C(=O)C(=O)N5CCC(=C(C#N)c6ccccc6)CC5)c[nH]c34)n2)CC1 [Int-11] | – | > 10 | – | – | –
C#CCOCCOCCOCCOCCNC(=O)c1nc(-c2ncc(OC)c3c(C(=O)C(=O)N4CCC(=C(C#N)c5ccccc5)CC4)c[nH]c23)cs1 [Int-1] | – | > 10 | > 10 | – | –
C#CCOCCOCCOCCOCCC(=O)N(CCCNC(=O)CCOCCNC(=O)c1ncn(-c2ncc(OC)c3c(C(=O)C(=O)N4CCC(=C(C#N)c5ccccc5)CC4)c[nH]c23)n1)C(CO)(CO)CO [Int-12] | > 10 | – | – | – | –
enfuvirtide | – | – | – | > 1 | TC50 [2]: >1,000
C#CCOCCOCCOCCOCCC(=O)NCc1ncn(-c2ncc(OC)c3c(C(=O)C(=O)N4CCN(C(=O)c5ccccc5)CC4)c[nH]c23)n1 [Int-7] | – | > 0.5 | > 0.5 | – | –
C#CCOCCOCCOCCOCCN(CCCO)CCCN(CCCO)CCCNC(=O)c1ncn(-c2ncc(OC)c3c(C(=O)C(=O)N4CCC(=C(C#N)c5ccccc5)CC4)c[nH]c23)n1 [Int-26] | – | – | – | – | TC50 [2]: >2000
C#CCOCCOCCOCCOCCNC(=O)COCc1ncn(-c2ncc(OC)c3c(C(=O)C(=O)N4CCN(C(=O)c5ccccc5)CC4)c[nH]c23)n1 [Int-5] | – | > 0.5 | > 0.5 | – | –
C#CCOCCOCCOCCOCCNC(=O)c1csc(-c2ncc(OC)c3c(C(=O)C(=O)N4CCN(C(=O)c5ccccc5)CC4)c[nH]c23)n1 [Int-9] | – | > 10 | > 10 | – | –
COc1cnc(-n2cnc(COCC(=O)NCCOCCOCCOCCOCCOCCON)n2)c2[nH]cc(C(=O)C(=O)N3CCN(C(=O)c4ccccc4)CC3)c12 [Int-6] | – | > 0.5 | > 0.5 | – | –
C#CCOCCOCCOCCOCCN1CCN(CCCNC(=O)c2ncn(-c3ncc(OC)c4c(C(=O)C(=O)N5CCC(=C(C#N)c6ccccn6)CC5)c[nH]c34)n2)CC1 [Int-27] | – | – | – | – | TC50 [2]: >2000
C#CCOCCOCCOCCOCCC(=O)N[C@@H](CS(=O)(=O)O)C(=O)N1CCN(CCNC(=O)c2ncn(-c3ncc(OC)c4c(C(=O)C(=O)N5CCC(=C(C#N)c6ccccc6)CC5)c[nH]c34)n2)CC1 [Int-14] | > 10 | – | – | – | –
C#CCOCCOCCOCCOCCC(=O)N(CCCNC(=O)c1ncn(-c2ncc(OC)c3c(C(=O)C(=O)N4CCC(=C(C#N)c5ccccc5)CC4)c[nH]c23)n1)C(CO)(CO)CO [Int-17] | > 10 | – | – | > 0.5 | –
C#CCOCCOCCOCCOCCN1CCN(CCCN2CCN(CCNC(=O)c3ncn(-c4ncc(OC)c5c(C(=O)C(=O)N6CCC(=C(C#N)c7ccccc7)CC6)c[nH]c45)n3)CC2)CC1 [Int-19] | – | – | – | > 0.5 | –
C#CCOCCOCCOCCOCCN1CCN(CCCNC(=O)c2ncn(-c3ncc(OC)c4c(C(=O)C(=O)N5CCC(=C(C#N)c6ccccc6)CC5)c[nH]c34)n2)CC1 [Int-18] | – | – | – | > 0.5 | TC50 [2]: >2000
C#CCOCCOCCOCCOCCN1CCN(CCCN2CCN(CCCNC(=O)c3ncn(-c4ncc(OC)c5c(C(=O)C(=O)N6CCC(=C(C#N)c7ccccc7)CC6)c[nH]c45)n3)CC2)CC1 [Int-22] | – | – | – | > 0.5 | TC50 [2]: >2000
C#CCOCCOCCOCCOCCNC(=O)c1ncn(-c2ncc(OC)c3c(C(=O)C(=O)N4CCN(C(=O)c5ccccc5)CC4)c[nH]c23)n1 [Int-20] | – | – | – | > 0.5 | –
COc1cc(-c2ccc(/N=N/c3ccc4c(S(=O)(=O)O)cc(S(=O)(=O)O)c(N)c4c3O)c(OC)c2)ccc1/N=N/c1ccc2c(S(=O)(=O)O)cc(S(=O)(=O)O)c(N)c2c1O [CSB, Chicago Sky Blue, reference compound] | > 10 | > 10 | > 10 | > 10 | CC50 (in vitro; [3]): > 10 µM
C#CCOCCOCCOCCOCCOc1cnc(-n2cnc(C)n2)c2[nH]cc(C(=O)C(=O)N3CCN(C(=O)c4ccccc4)CC3)c12 [Int-8] | – | > 10 | > 10 | – | –
C#CCOCCOCCNC(=N)NCCNC(=O)c1csc(-c2ncc(OC)c3c(C(=O)C(=O)N4CCN(C(=O)c5ccccc5)CC4)c[nH]c23)n1 [Int-10] | – | > 10 | > 10 | – | –
C#CCOCCOCCOCCOCCNC(=O)c1cn(-c2ncc(OC)c3c(C(=O)C(=O)N4CCC(=C(C#N)c5ccccc5)CC4)c[nH]c23)nn1 [Int-13] | > 10 | – | – | – | –
C#CCOCCOCCOCCOCCC(=O)N(CC(=O)NCCOCCOCCOCCOCCOCCOCCOCCOCCOCCOCCOCCOC)CC(=O)NCCn1cc(COCCOCCOCCOCCNC(=O)c2ncn(-c3ncc(OC)c4c(C(=O)C(=O)N5CCC(=C(C#N)c6ccccc6)CC5)c[nH]c34)n2)nn1 [Int-25] | – | – | – | > 0.5 | TC50 [2]: >2000
C#CCOCCOCCOCCOCCN1CCN(CCNC(=O)c2ncn(-c3ncc(OC)c4c(C(=O)C(=O)N5CCC(=C(C#N)c6ccccc6)CC5)c[nH]c34)n2)CC1 [Int-16] | > 10 | – | – | – | –
C#CCOCCOCCNC(=N)NCCNC(=O)c1csc(-c2ncc(OC)c3c(C(=O)C(=O)N4CCC(=C(C#N)c5ccccc5)CC4)c[nH]c23)n1 [Int-3] | – | > 10 | > 10 | – | –
C#CCOCCOCCOCCOCCC(=O)N(CCCNC(=O)c1ncn(-c2ncc(OC)c3c(C(=O)C(=O)N4CCC(=C(C#N)c5ccccc5)CC4)c[nH]c23)n1)CCS(=O)(=O)O [Int-15] | > 10 | – | – | – | –
